# Test results published in US7186534B1 (The Trustees of Columbia University in the City of New York, priority 1997, dated 2007).
# pIC50, pKi: −log10 of the molar value.
# Tests used:
# [1] = biological target: T1, human 9-cis retinol dehydrogenase (9cRDH) (Homo sapiens, UniProt Q92781); experiment: Inhibition of recombinant human 9cRDH activity (9-cis-retinol oxidation, CHO cell homogenate, HPLC); type: biochemical
# T1 sequence (Q92781 1-318): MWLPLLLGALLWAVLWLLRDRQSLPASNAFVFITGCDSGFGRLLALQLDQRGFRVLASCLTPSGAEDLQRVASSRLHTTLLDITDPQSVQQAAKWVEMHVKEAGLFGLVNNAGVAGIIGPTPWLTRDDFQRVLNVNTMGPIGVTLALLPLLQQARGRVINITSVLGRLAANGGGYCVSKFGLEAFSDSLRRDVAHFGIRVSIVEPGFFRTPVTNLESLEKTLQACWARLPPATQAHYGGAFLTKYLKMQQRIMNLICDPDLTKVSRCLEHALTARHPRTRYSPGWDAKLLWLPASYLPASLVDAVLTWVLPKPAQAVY
# [2] = biological target: rat liver and human prostate 17β-hydroxysteroid dehydrogenase (identical to retinol dehydrogenase, type I); conditions: cited from earlier work
# [3] = Isomerization of retinoic acids in the human 9-cis retinol dehydrogenase assay; type: physicochemical; conditions: for 9-cis isomer present at end of assay / 13-cis isomer present at end of assay / all-trans isomer present at end of assay: 37° C., 15 minutes; for final concentration of 13-cis-retinoic acid formed by isomerization: 10 μM retinoic acid, end of the 15 minute assay
# Protocol: Inhibition Studies of 9cRDH Activity. For the inhibition experiments, each potential inhibitor tested was added to the recombinant 9cRDH in 5 μl of ethanol in the presence of 2 mM NAD^+, 10 mM Hepes, pH 8.0, containing 150 mM KCl, 1 mM EDTA, and 50 μg phosphotidyl choline (assay incubation mixture lacking the retinoid substrate). This mixture was allowed to sit on ice for 5 minutes prior to adding substrate. Upon addition of 10 μM 9-cis-retinol (final concentration), the mixture was incubated for 15 minutes at […] with agitation and extracted as described above for the standard enzyme assay. HPLC Procedures. Stereoisomers of both retinol and retinaldehyde were separated on a 4.6×15-mm Supelco (Belefonte, Pa.) LC-SI Supelcosil™ column using hexane:ethyl acetate:butanol (96.9:3:0.1 v/v) as the mobile phase flowing at 0.8 ml/min. A silica guard column (Supelco) preceded the running column. Retinols and retinaldehydes were detected using a Waters 996 Photodiode array detector at absorbances of 325 and 365 nm, respectively. Retention times for all-trans-, 9-cis-, 11-cis-, and 13-cis-retinols and corresponding retinaldehydes were established using the purified compounds obtained as described above. Quantities of each retinol and retinaldehyde isomer present in extracts were determined by comparisons of the integrated areas under the HPLC peaks with a standard curve constructed relating integrated peak area with known masses of each retinoid isomer. The concentration of each retinoid isomer were determined by UV-visible spectrophotometry using published extinction coefficients for each retinol, retinaldehyde or retinoic acid isomer (25).
# To test this possibility, the degree of isomerization of retinoic acid which occurs under the assay conditions was measured.
# mouse 9cRDH [4] = biological target: T2, mouse 9cRDH (Mus musculus, UniProt O55240); experiment: Inhibition of recombinant mouse 9cRDH activity (9-cis-retinol oxidation, CHO cell homogenate, HPLC); type: biochemical; conditions: for inhibition of mouse 9cRDH activity (in words): 10 μM 9-cis-retinol
# T2 sequence (O55240 1-318): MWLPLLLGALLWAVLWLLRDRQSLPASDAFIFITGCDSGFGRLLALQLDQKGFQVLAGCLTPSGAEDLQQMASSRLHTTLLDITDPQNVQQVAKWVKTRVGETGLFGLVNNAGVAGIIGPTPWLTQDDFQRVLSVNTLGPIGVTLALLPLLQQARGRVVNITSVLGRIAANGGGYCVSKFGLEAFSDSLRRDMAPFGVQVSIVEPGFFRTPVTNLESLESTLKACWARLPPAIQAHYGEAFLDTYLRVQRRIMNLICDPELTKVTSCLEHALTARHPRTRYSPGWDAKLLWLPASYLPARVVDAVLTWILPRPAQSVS
# [5] = animals and humans receiving 13-cis-retinoic acid pharmacologically; cited from earlier work
# visual cycle = conditions: administration to frogs; cited from earlier work
# [6] = biological target: human alcohol dehydrogenase type IV (Homo sapiens, UniProt P40394); conditions: cited from earlier work
# Chain of human alcohol dehydrogenase type IV (P40394 whole entry): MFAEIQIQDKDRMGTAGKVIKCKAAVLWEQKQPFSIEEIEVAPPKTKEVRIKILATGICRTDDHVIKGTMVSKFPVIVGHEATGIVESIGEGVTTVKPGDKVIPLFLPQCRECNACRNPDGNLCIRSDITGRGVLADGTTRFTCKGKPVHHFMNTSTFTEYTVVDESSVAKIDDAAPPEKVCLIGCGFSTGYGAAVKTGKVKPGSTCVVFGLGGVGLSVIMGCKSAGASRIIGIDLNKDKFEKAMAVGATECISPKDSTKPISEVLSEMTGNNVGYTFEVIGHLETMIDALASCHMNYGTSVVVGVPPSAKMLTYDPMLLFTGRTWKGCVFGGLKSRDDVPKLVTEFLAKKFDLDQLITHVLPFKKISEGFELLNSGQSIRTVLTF
# mouse 9cRDH [7] = biological target: T2, mouse 9cRDH; experiment: Hydroxysteroid oxidation/reduction by mouse 9cRDH (TLC); type: biochemical; conditions: 37° C., 1.5 h; TLC detection limit approximately 3 pmol/min/mg protein
# Protocol: (§1) To investigate whether human or mouse 9cRDH will catalyze oxidations or reductions of 3α-hydroxy-, 11β-hydroxy- or 17β-hydroxysteroids, these steroids were incubated at 37° C. for 1.5 h in the assay media described above for assessing oxidation/reduction of 9-cis-retinol/9-cis-retinaldehyde. The Hepes NAD^+-containing assay buffer described above was employed to assess hydroxysteroid oxidation and to assess hydroxysteroid reduction the acetate buffer containing NADH (or NADPH) assay buffer (see above) was employed. Immediately following incubation, the steroids were extracted as described above for retinoids. The final hexane extract was evaporated to near dryness and this was spotted onto a silica high performance TLC plate (Whatman Inc., Clifton, N.J.) and developed in hexane/diethyl ether/acetic acid (70:30:1, v/v) or ethyl acetate/chloroform (25:75, v/v). Steroids were visualized by charring after treatment of the TLC plates with an areosol of 10% (v/v) H2SO4 in methanol.
# (§2) Biswas and Russell (32) have reported that rat liver all-trans-retinol dehydrogenase type I also uses several 3α-hydroxy- and 17β-hydroxysteroids as substrates. Chai et al. (18) also reported that hydroxysteroids are substrates for mouse liver cis-retinol dehydrogenase. Since human 9cRDH is approximately 50% identical to the rat liver enzymes and shares approximately 63% homology to mouse liver cis-retinol dehydrogenase, next investigated was whether these steroids might also be substrates for 9cRDH. To test this possibility it was determined whether human or mouse 9cRDH would catalyze oxidation of 5α-androstan-3α, 17β-diol, androsterone, testosterone or dihydrotestosterone to corresponding ketone products. Also investigated was whether human and/or mouse 9cRDH could catalyze reduction of the corresponding ketones. […] It is estimate, based on the lower limits for hydroxysteroid detection by TLC, that it would be possible to detect rates of hydroxysteroid oxidation as low as approximately 3 pmol/min/mg protein. This rate of hydroxysteroid oxidation is at least 2-orders of magnitude lower than Vmax values reported by Biswas and Russell (32) and Chai et al. (18) for oxidation of hydroxysteroids in their studies of enzymes that are able to oxidize both retinol and hydroxysteroids.
# human 9cRDH = biological target: T3, human 9cRDH (Homo sapiens, UniProt Q92781); experiment: Hydroxysteroid oxidation/reduction by human 9cRDH (TLC); type: biochemical; conditions: 37° C., 1.5 h; TLC detection limit approximately 3 pmol/min/mg protein
# T3 sequence (Q92781 1-318): T1 sequence (Q92781 1-318)
# Protocol: as §1, §2
# [8] = 1 μM 13-cis Retinoic Acid at start
# [9] = 10 μM steroid, equimolar to substrate, forward (retinol oxidation) or reverse (retinaldehyde reduction) direction
compound,measurement,setting,value
"CC1=C(/C=C/C(C)=C\C=C\C(C)=C\C(=O)O)C(C)(C)CCC1 [9-cis Retinoic Acid, 9-cis-retinoic acid]",times (fold) less potent than 13-cis retinoic acid as inhibitor of 9cRDH,[1],18
same,inhibition of human 9cRDH activity (in words),"[1]; 10 μM 9-cis-retinol, listed as 9-cis retinoic acid",potent inhibitors
same,inhibition of human 9cRDH activity (in words),"[1]; 10 μM 9-cis-retinol, listed as 9-cis-retinoic acid",very potent inhibitors
same,inhibition of 9cRDH activity,[1]; 10 μM retinoic acid,81%
same,pKi,[2],6.40
same,9-cis isomer present at end of assay,[3]; 10 μM retinoic acid at start,94.7%
same,13-cis isomer present at end of assay,[3]; 10 μM retinoic acid at start,1.1%
same,all-trans isomer present at end of assay,[3]; 10 μM retinoic acid at start,4.2%
same,13-cis isomer present at end of assay,"[3]; 10 μM retinoic acid at start, listed as 9-cis-retinoic acid",~1.1%
same,final concentration of 13-cis-retinoic acid formed by isomerization,[3],approximately 0.1 μM
same,inhibition of mouse 9cRDH activity (in words),mouse 9cRDH [4],very potent inhibitors
"CC1=C(/C=C/C(C)=C/C=C/C(C)=C\C(=O)O)C(C)(C)CCC1 [13-cis Retinoic Acid, 13-cis-retinoic acid]",concentrations reached in the blood and tissues,[5],≥ 10 µM
same,block of the visual cycle in vivo (in words),visual cycle,block the visual cycle
same,concentration at which human 9cRDH is potently inhibited,[1],0.05 µM
same,expected inhibition of h9cRDH activity,[1]; 0.1 μM 13-cis-retinoic acid present for the full 15 minute incubation,40–50%
same,inhibition of human 9cRDH activity (in words),"[1]; 10 μM 9-cis-retinol, listed as 13-cis retinoic acid",potent inhibitors
same,inhibition of human 9cRDH activity (in words),"[1]; 10 μM 9-cis-retinol, listed as 13-cis-retinoic acid",very potent inhibitors
same,pKi,[2],5.40
same,13-cis isomer present at end of assay,[3]; [8],98.4%
same,all-trans isomer present at end of assay,[3]; [8],1.6%
same,concentration at which mouse 9cRDH is potently inhibited,mouse 9cRDH [4],0.05 µM
same,inhibition of mouse 9cRDH activity (in words),mouse 9cRDH [4],very potent inhibitors
same,pIC50,"mouse 9cRDH [4]; substrate concentration 10 μM, read-out: Inhibitor concentration giving approximately 50% inhibition of m9cRDH activity",~6.82
same,inhibition of purified human alcohol dehydrogenase type IV (in words),[6],in vitro inhibition
"CC1=C(/C=C/C(C)=C/C=C/C(C)=C/C(=O)O)C(C)(C)CCC1 [all-trans Retinoic Acid, all-trans-retinoic acid]",block of the visual cycle in vivo (in words),visual cycle,block the visual cycle
same,times (fold) less potent than 13-cis retinoic acid as inhibitor of 9cRDH,[1],30
same,pIC50,"[1]; 10 μM 9-cis-retinol, 15 min, 37° C., CHO cell homogenate, read-out: Estimated inhibitor concentration resulting in 50% inhibition of human 9-cis retinol dehydrogenase activity (ID50)",5.34
same,inhibition of human 9cRDH activity (in words),"[1]; 10 μM 9-cis-retinol, listed as all-trans retinoic acid",potent inhibitors
same,inhibition of human 9cRDH activity (in words),"[1]; 10 μM 9-cis-retinol, listed as all-trans-retinoic acid",very potent inhibitors
same,inhibition at 10 µM,[1]; 10 μM retinoic acid,66%
same,9-cis isomer present at end of assay,[3]; 10 μM retinoic acid at start,0.4%
same,13-cis isomer present at end of assay,[3]; 10 μM retinoic acid at start,0.8%
same,all-trans isomer present at end of assay,[3]; 10 μM retinoic acid at start,98.8%
same,13-cis isomer present at end of assay,"[3]; 10 μM retinoic acid at start, listed as all-trans-retinoic acid",approximately 1%
same,final concentration of 13-cis-retinoic acid formed by isomerization,[3],approximately 0.1 μM
same,inhibition of mouse 9cRDH activity (in words),mouse 9cRDH [4],very potent inhibitors
C[C@]12CC[C@H]3[C@@H](CCC4=CC(=O)CC[C@@]43C)[C@@H]1CC[C@@H]2O [testosterone],inhibition of human 9cRDH activity by hydroxysteroids,[1]; [9],none of these hydroxysteroids inhibited
same,catalysis by mouse 9cRDH of hydroxysteroid oxidation to ketone products (or reduction of the corresponding ketones),mouse 9cRDH [7],Neither human nor mouse 9cRDH were found to catalyze
same,inhibition of mouse 9cRDH activity by hydroxysteroids,mouse 9cRDH [4]; [9],none of these hydroxysteroids inhibited
same,catalysis by human 9cRDH of hydroxysteroid oxidation to ketone products (or reduction of the corresponding ketones),human 9cRDH,Neither human nor mouse 9cRDH were found to catalyze
